The source made the active and inactive calls.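 How the source made its calls: active means a full or partial dose-response curve in at least two of three replicate runs; inactive means the rest.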

The test deals with D(1B) dopamine receptor (Homo sapiens) (UniProt P21918). Put plainly: dopamine D5 receptor modulation at EC30 dopamine, dose response, selectivity assay for D1 allosteric modulator project, cell-based, HEK293, CRE-luciferase, luminescence (AID 857).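 Further: HEK 293 cells expressing human D5 with a CRE-driven luciferase reporter.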
Sequence of D(1B) dopamine receptor (Homo sapiens) (P21918 whole entry, looked up): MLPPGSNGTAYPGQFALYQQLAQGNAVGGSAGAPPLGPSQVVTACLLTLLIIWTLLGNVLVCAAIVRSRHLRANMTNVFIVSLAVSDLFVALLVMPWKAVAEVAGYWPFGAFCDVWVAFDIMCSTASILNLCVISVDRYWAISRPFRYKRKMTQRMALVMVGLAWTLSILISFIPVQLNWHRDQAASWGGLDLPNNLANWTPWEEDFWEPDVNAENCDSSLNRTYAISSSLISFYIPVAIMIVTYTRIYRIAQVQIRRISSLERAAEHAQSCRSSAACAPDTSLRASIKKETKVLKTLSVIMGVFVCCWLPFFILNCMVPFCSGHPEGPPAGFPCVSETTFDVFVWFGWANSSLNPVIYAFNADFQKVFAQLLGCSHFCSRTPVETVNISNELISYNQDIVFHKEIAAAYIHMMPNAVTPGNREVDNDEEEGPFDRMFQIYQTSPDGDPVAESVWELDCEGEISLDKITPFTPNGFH
Turning to `Cc1nc(-c2ccc(S(=O)(=O)N3CCCCCC3)cc2)cs1`, the outcome was inactive.
Next, `CCCCCn1c(NCc2ccco2)nc2ccccc21`: “inactive”; `COc1ccc(CCNS(=O)(=O)c2ccc3c(c2)OCCO3)cc1OC`: “inactive”; `COc1ccccc1CNC(=O)c1ccc(NS(=O)(=O)c2c(C)noc2C)cc1`: “inactive”.
Next, `N#Cc1nc(N)nc(N(c2ccccc2)c2ccccc2)n1`: “inactive”; `COC(=O)c1ccccc1NC(=O)COc1ccc(S(=O)(=O)N2CCCC2)cc1C`: “inactive”.
Regarding `CCOC(=O)N1CCN(C(=O)CCCn2c(=S)[nH]c3ccccc3c2=O)CC1`, the result was inactive.
Turning to `CCC(=O)Nc1nc2c(OC)ccc(OC)c2s1`, the outcome was inactive.
`COc1ccc(-c2noc(CCC(N)=O)n2)cc1OC`: the outcome was inactive.
The entry for `CC1=CC(C)(C)N=C(NC#N)N1` is “inactive”.
With `Cc1[nH]nc2c1C(c1ccc(F)cc1)C1=C(CC(C)(C)CC1=O)N2` (stereo not drawn), the outcome was inactive.
As to `CCCCCn1c(N)c(C#N)c2nc3ccccc3nc21`, the result was inactive.
Consider `CC1(C)CN=C(Nc2nc3ccccc3s2)S1`, for which the result was inactive.
The entry for `CCc1nc2ccccc2c(C(=O)OCC(=O)NCc2ccco2)c1C` is “inactive”; for `Cc1cc(-c2cccs2)c2c(n1)sc1c(=O)[nH]c(=O)[nH]c12` it is “inactive”.
Regarding `Cc1cc(C)nc(SCC(=O)N2CCCCC2)n1`, the result was inactive.
For the compound `COc1ccc(OC)c(C(=O)COC(=O)C2CC3CCCC(C2)C3=O)c1` (stereo not drawn), the outcome was inactive.
For the compound `CSc1ccc(C2C(C#N)=C(N)N(c3ccccc3)C3=C2C(=O)CCC3)cc1` (stereo not drawn), the result was inactive.
Turning to `CCOC(=O)Cc1[nH]nc2c1C(c1cccc(OC)c1OC)C(C#N)=C(N)O2` (stereo not drawn), the outcome was inactive.
Next, `c1ccc2c(c1)CCCN2c1nc2ccccc2n2cnnc12`: “inactive”; `CCCCN(CC)C(=O)c1ccc(Cl)c(Cl)c1`: “inactive”.
Take `Cc1ccc(OCCN2C(=O)OC(C)(C)C2(C)O)cc1` (stereo not drawn): the outcome was inactive.
The entry for `O=C(Nc1ncnc2sc3c(c12)CCCCC3)c1ccco1` is “inactive”; for `C=CCSc1nnc2n(-c3ccccc3OC)c(=O)c3c4c(sc3n12)CCC4` it is “inactive”.
On to `Cc1cc(SCC(=O)N2CCC(c3noc4ccc(F)cc34)CC2)nc2ccccc12`, for which the outcome was inactive.
The entry for `CCCC(=O)Nc1ccc(NC(=O)C2CC2)cn1` is “inactive”; for `O=C1CC(c2ccsc2)c2cc3c(cc2N1)OCCO3` (stereo not drawn) it is “inactive”.
Next, `CCSC(C)CC1C/C(=N/O)c2c(CC)noc2C1` (stereo not drawn): “inactive”.
For the compound `Cc1cccc(C2CC(c3ccc(F)cc3)Nc3nc(N)nn32)c1` (stereo not drawn), the outcome was inactive.
Regarding `CCOC(=O)c1ccc(Oc2cc(C)nc(SC)n2)cc1`, the outcome was inactive.
As for `COc1ccc(OC)c(N2C(=O)C(Cl)=C(N3CCCCC3)C2=O)c1`, the result was inactive.
Turning to `Cn1c(=O)c2c(nc(SCCCO)n2Cc2ccccc2Cl)n(C)c1=O`, the outcome was inactive.
Regarding `CCc1nc2sc3ccccc3c(=O)c2c(=O)n1Cc1ccco1`, the outcome was inactive.
Next, `COc1cc(OC)cc(C(=O)Nn2cc(C(=O)N3CCN(C)CC3)c3ccccc3c2=O)c1`: “inactive”.
In the case of `COc1cccc(-c2nnc(SCC(=O)Nc3cc(C)on3)o2)c1`, the outcome was inactive.
For `CCOC(=O)N1CCC(N2Cc3cccc(C(=O)NC(C)c4ccc5c(c4)OCCO5)c3C2=O)CC1` (stereo not drawn), the result was inactive.
In the case of `CCCn1c(=O)c2ccccc2n2c(SCc3nc4ccccc4s3)nnc12`, the outcome was inactive.
With `CCc1nn(CCCC(=O)N2CCc3ccccc3C2)c(=O)c2cc3occc3n12`, the result was inactive.
